As a reminder, the pKa is the pH at which an ionisable group is half protonated. Read a low pKa as a stronger acid or weaker base.

Consider 5 compounds from ChEMBL document CHEMBL1124074, “Bile acids with a cyclopropyl-containing side chain. 3. Separation, identification, and properties of all four stereoisomers of 3 alpha,7 beta-dihydroxy-22,23-methylene-5 beta-cholan-24-oic acid” (J Med Chem, 1988).

Each structure is given as a SMILES string.

Data set [1] can be described thus: pKa value was evaluated. Format: physicochemical.
The nature of data set [2]: Critical micellar concentration was measured in water by the dye solubilization method. It counts as ADME. The settings on record: buffer.

Compound `C[C@H]([C@@H]1C[C@@H]1C(=O)O)[C@H]1CC[C@H]2[C@@H]3[C@@H](O)CC4C[C@H](O)CC[C@]4(C)[C@H]3CC[C@]12C` (some centres undefined) displayed a pKa in data set [1] of 5.02. For the same compound, in data set [2], the CMC stood at 14 mM.
`C[C@H]([C@H]1C[C@H]1C(=O)O)[C@H]1CC[C@H]2[C@@H]3[C@@H](O)CC4C[C@H](O)CC[C@]4(C)[C@H]3CC[C@]12C` (some centres undefined): in data set [1], the pKa is 5.04. In addition, the CMC in data set [2] came out at 10 mM.
As to `CC(C1CC[C@H]2[C@@H]3[C@@H](O)CC4C[C@H](O)CCC4(C)[C@H]3CCC12C)[C@@H]1C[C@@H]1C(=O)O` (some centres undefined), the pKa in data set [1] was found to be 5.04. This compound also returned a CMC in data set [2] of 25 mM.
The compound `CC(C1CC[C@H]2[C@@H]3[C@@H](O)CC4C[C@H](O)CCC4(C)[C@H]3CCC12C)[C@H]1C[C@H]1C(=O)O` (some centres undefined) returned a pKa in data set [1] of 5.05. Further, the CMC in data set [2] was 20 mM.
With `C[C@H](CCC(=O)O)[C@H]1CC[C@H]2[C@@H]3[C@@H](O)C[C@@H]4C[C@H](O)CC[C@]4(C)[C@H]3CC[C@]12C` [URSODIOL], the CMC in data set [2] was 19 mM.
